Data: ChEMBL document CHEMBL1144416, “Structural requirements for factor Xa inhibition by 3-oxybenzamides with neutral P1 substituents: combining X-ray crystallography, 3D-QSAR, and tailored scoring functions” (J Med Chem, 2005)
pKi: −log10 of the molar value.

Key:
[1] = Binding affinity towards Thrombin; set-up: species or system Homo sapiens
Coagulation factor X = Coagulation factor X (Homo sapiens, UniProt P00742); assay: Binding affinity towards human Coagulation factor X
Coagulation factor X, sequence (P00742 41-179 limits assumed): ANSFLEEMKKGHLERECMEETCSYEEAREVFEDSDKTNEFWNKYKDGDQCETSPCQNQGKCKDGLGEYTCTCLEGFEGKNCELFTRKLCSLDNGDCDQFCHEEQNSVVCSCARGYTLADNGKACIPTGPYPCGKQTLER
Coagulation factor X, sequence (P00742 235-488 limits assumed): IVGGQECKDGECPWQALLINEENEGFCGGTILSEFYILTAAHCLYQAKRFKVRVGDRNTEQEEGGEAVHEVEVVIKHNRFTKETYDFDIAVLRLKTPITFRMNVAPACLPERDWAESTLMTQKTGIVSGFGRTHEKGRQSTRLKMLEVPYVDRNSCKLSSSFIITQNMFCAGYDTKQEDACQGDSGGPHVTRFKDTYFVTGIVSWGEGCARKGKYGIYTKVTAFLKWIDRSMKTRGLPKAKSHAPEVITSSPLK

Compound	pKi [1]	pKi (Coagulation factor X)
COc1ccc(C(=O)NCC2CCN(c3ccncc3)CC2)cc1OCCc1ccc(Cl)cc1	5.28	
CCOc1cc(C(=O)NCC2CCN(c3ccncc3)CC2)cc(OCCc2ccc(Cl)cc2Cl)c1Br	4.43	
COc1ccc(C(=O)NCC2CCN(c3ccc(Cl)cc3)CC2)cc1OCCc1ccc(Cl)cc1Cl		5.00
O=C(NCC1CCN(c2ccncc2)CC1)c1ccc(Cl)c(OCCc2ccc(Cl)cn2)c1	5.27	
COc1ccc(C(=O)NC2CCN(C3CCCCC3)CC2)cc1OCCc1ccc(Cl)cc1Cl		5.39
COc1ccc(C(=O)NC2CCN(CC(=O)N3CCCC3)CC2)cc1OCCc1ccc(Cl)cc1Cl		5.59
COc1cc(C(=O)NCC2CCN(c3ccncc3)CC2)cc(OCCc2ccc(Cl)cc2Cl)c1C	5.76	
CNc1ccc(C(=O)NCC2CCN(c3ccncc3)CC2)cc1OCCc1ccc(Cl)cc1Cl	5.96	
CCN(CC)C(=O)[C@H](CCCN=C(N)N)NC(=O)c1ccc(OC)c(OCCc2ccc(Cl)cc2Cl)c1		6.82
COc1ccc(C(=O)N2CCN(Cc3ccc(F)cc3)CC2)cc1OCCc1ccc(Cl)cc1Cl		5.41
COc1ccc(C(=O)NCC2CCN(c3cc(C)nc(N)n3)CC2)cc1OCCc1ccc(Cl)cc1Cl		5.00
O=C(NCC1CCN(c2ccncc2)CC1)c1ccc(F)c(OCCc2ccc(Cl)cc2)c1	5.25	
COc1cc(C(=O)NCC2CCN(c3ccncc3)CC2)cc(OCCc2ccc(Cl)cc2Cl)c1OC	5.39	
COc1ccc(C(=O)NCC2CCN(c3ccnc(SC)n3)CC2)cc1OCCc1ccc(Cl)cc1Cl		5.00
CC(=O)Nc1ccc(CCOc2cc(C(=O)NCC3CCN(c4ccncc4)CC3)ccc2Cl)cc1		5.00
O=C(NCC1CCN(c2ccncc2)CC1)c1ccc(C(F)(F)F)c(OCCc2ccc(Cl)cc2Cl)c1	4.50	
O=C(c1cccc(OCCc2ccc(Cl)cc2Cl)c1)N1CCN(Cc2ccncc2)CC1		5.55
COc1ccc(C(=O)NCC2CCN(c3ccc(S(C)(=O)=O)cc3)CC2)cc1OCCc1ccc(Cl)cc1Cl		5.00
COc1ccc(N2CCC(CNC(=O)c3ccc(OC)c(OCCc4ccc(Cl)cc4Cl)c3)CC2)cn1		5.00
COc1cc(C(=O)NCC2CCN(c3ccncc3)CC2)cc(OCCc2ccc(Cl)cc2Cl)c1Br	5.64	

Compound	pKi [1]	pKi (Coagulation factor X)
CCOc1ccc(C(=O)NCC2CCN(c3ccncc3)CC2)cc1OCCc1ccc(Cl)cc1Cl	5.20	
COc1ccc(C(=O)Nc2ccc(-c3ccccc3C#N)cc2)cc1OCCc1ccc(Cl)cc1Cl		5.00
COc1cc(C(=O)NCC2CCN(c3ccncc3)CC2)cc(OCCc2ccc(Cl)cc2)c1Cl	5.43	
Cc1ccc(C(=O)NCC2CCN(c3ccncc3)CC2)cc1OCCc1ccc(Cl)cc1Cl	5.31	
O=C(NCC1CCN(c2ccncc2)CC1)c1ccc(Cl)c(OCCc2ccc(Cl)cc2)c1	5.56	
COc1ccc(C(=O)NCC2CCN(c3cccc(C#N)c3)CC2)cc1OCCc1ccc(Cl)cc1Cl		5.00
COc1ccc(C(=O)NCC2CCN(c3cncnc3)CC2)cc1OCCc1ccc(Cl)cc1Cl		5.00
CC(=O)Nc1ccc(CCOc2cc(C(=O)NCC3CCN(c4ccncc4)CC3)ccc2F)cc1		5.00
NC(=O)c1cc(OCCc2ccc(Cl)cc2Cl)cc(C(=O)NCC2CCN(c3ccncc3)CC2)c1	5.29	
COc1ccc(C(=O)NCC2CCN(C3CCNCC3)CC2)cc1OCCc1ccc(Cl)cc1Cl		5.24
COc1ccc(C(=O)NC2CCN(C3CCOCC3)CC2)cc1OCCc1ccc(Cl)cc1Cl		5.60
COc1ccc(C(=O)NCC2CCN(c3ccnc(C)c3)CC2)cc1OCCc1ccc(Cl)cc1Cl	4.68	
CC(=O)Oc1cc(C(=O)NCC2CCN(c3ccncc3)CC2)cc(OCCc2ccc(Cl)cc2Cl)c1Br		6.55
COc1cc(N2CCC(CNC(=O)c3ccc(OC)c(OCCc4ccc(Cl)cc4Cl)c3)CC2)nc(OC)n1		5.00
O=C(NCC1CCN(c2ccncc2)CC1)c1ccc(Cl)c(OCCc2ccc(Br)cc2)c1	5.33	
O=C(NCC1CCN(c2ccncc2)CC1)c1cc(OCCc2ccc(Cl)cc2Cl)c2c(c1)OCO2	5.78	
COc1cc(C(=O)NCC2CCN(c3ccncc3)CC2)cc(OCCc2ccc(Cl)cc2Cl)c1Cl	5.74	
COc1ccc(C(=O)NC2CCN(c3cc[n+]([O-])cc3)CC2)cc1OCCc1ccc(Cl)cc1Cl		5.90
O=C(NCC1CCN(c2ccncc2)CC1)c1ccc(Cl)c(OCCc2ccc(Cl)cc2Cl)c1	5.51	
